# In US20200239530A1, “COMPOUNDS AND METHODS OF MODULATING PROTEIN DEGRADATION” (Vividion Therapeutics, Inc., priority 2017, published 2020):
# What was measured:
# Type in all cases: binding
# [1] = target: T1, cysteine residue illustrated in Table 1A or Table 2A (Homo sapiens, UniProt O75155); assay: Competitive cysteine profiling of cell lysate with desthiobiotin iodoacetamide probe (96-well sample prep); settings: UniProt O75155; 100 uM
# T1 construct: Cells were resuspended in cold PBS on ice and sonicated with a probe sonicator to achieve lysis; endogenous in cells
# T1 sequence (O75155 whole entry): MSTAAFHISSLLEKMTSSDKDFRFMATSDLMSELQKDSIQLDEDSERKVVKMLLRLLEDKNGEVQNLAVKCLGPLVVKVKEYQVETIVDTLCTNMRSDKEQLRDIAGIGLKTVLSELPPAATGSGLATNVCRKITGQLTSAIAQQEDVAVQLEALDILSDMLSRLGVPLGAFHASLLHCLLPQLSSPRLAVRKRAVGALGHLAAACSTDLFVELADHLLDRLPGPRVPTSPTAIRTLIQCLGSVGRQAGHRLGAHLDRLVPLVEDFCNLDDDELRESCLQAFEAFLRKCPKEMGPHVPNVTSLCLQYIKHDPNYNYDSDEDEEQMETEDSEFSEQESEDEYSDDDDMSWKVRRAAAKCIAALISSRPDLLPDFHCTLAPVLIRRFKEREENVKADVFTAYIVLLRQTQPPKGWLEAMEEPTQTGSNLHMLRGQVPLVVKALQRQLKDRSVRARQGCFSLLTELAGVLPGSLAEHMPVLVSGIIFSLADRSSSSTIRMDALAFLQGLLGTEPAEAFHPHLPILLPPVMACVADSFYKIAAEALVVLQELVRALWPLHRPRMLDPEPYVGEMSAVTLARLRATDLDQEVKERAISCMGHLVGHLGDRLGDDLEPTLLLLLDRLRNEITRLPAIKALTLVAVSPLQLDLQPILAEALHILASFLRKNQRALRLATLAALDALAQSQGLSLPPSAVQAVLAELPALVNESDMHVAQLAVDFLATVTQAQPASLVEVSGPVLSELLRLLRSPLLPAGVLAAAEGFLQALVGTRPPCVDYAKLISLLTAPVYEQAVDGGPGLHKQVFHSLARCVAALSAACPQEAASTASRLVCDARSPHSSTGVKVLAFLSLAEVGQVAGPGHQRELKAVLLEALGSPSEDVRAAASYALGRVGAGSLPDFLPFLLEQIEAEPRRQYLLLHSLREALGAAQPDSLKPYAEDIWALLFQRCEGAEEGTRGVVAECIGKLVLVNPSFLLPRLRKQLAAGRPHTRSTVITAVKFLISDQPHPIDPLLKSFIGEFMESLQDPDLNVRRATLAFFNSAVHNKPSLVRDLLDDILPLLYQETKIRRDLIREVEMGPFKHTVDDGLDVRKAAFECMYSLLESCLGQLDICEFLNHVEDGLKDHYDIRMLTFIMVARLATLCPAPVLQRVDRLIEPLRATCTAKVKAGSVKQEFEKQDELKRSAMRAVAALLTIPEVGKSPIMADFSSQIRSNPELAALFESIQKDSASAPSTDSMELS
# Method in brief: (§1)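 Sonicated cell lysate (5 mg/ml proteome) was preincubated with compound 1 h at 25 °C, then labelled with desthiobiotin iodoacetamide probe 1 h at 25 °C. After reduction, alkylation and trypsin digestion, probe-labelled peptides were streptavidin-enriched and eluted for mass-spectrometric analysis.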
# [2] = target: T2, cysteine residue illustrated in Table 1A or Table 2A (Homo sapiens, UniProt Q8WV16); assay: as above; settings: UniProt Q8WV16; 100 uM
# T2 construct: Cells were resuspended in cold PBS on ice and sonicated with a probe sonicator to achieve lysis; endogenous in cells
# T2 sequence (Q8WV16 whole entry): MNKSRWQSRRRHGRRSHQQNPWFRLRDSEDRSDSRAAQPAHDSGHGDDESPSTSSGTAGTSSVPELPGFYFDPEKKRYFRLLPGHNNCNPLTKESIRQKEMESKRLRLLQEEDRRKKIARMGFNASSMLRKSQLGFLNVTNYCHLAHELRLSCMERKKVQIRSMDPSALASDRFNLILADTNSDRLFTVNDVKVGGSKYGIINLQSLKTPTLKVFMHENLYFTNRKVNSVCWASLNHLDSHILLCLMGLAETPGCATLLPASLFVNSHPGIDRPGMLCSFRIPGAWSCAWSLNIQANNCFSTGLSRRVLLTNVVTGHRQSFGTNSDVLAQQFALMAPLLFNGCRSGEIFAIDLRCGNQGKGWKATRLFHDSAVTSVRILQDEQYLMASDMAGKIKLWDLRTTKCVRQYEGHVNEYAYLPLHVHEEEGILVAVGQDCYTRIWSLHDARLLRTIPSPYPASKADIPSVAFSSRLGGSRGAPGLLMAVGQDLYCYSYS
# Method in brief: as §1
# [3] = test system: cysteine residue illustrated in Table 1A or Table 2A; assay: as above; settings: for KB02_100 uM_percent_inhibition: KB02 at 100 uM; for KB03_100 uM_percent_inhibition: KB03 at 100 uM
# Method in brief: as §1
# Q8N961 = target: T3, Q8N961 (Homo sapiens, UniProt Q8N961); assay: Competitive cysteine profiling, probe competition (Table 2B)
# T3 construct: Cells were resuspended in cold PBS on ice and sonicated with a probe sonicator to achieve lysis; endogenous in cells
# T3 sequence (Q8N961 whole entry): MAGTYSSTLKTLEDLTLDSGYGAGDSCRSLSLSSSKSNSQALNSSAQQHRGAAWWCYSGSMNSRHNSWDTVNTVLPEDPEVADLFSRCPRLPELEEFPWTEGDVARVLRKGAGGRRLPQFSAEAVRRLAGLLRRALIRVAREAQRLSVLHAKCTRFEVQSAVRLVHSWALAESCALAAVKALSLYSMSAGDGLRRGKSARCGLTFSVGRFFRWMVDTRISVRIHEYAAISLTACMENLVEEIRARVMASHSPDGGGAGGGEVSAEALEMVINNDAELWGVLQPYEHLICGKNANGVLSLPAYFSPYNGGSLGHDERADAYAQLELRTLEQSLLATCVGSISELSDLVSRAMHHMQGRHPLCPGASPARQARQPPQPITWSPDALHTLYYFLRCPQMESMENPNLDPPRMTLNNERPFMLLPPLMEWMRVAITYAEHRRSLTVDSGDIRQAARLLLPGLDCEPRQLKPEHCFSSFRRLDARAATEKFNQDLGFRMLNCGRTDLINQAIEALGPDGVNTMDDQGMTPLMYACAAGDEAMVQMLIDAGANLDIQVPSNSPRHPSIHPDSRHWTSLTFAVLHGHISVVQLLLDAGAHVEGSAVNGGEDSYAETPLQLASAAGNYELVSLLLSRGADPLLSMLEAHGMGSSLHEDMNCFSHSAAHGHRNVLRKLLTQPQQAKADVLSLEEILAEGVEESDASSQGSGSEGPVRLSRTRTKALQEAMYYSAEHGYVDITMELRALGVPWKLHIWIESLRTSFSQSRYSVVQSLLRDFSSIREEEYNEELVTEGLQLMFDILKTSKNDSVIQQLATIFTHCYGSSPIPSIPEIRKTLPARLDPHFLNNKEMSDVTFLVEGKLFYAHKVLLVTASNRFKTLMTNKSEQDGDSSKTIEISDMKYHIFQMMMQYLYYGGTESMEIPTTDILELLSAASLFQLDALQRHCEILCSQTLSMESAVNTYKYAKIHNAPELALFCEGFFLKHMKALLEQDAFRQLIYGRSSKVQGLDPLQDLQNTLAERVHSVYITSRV
# Source text: (§2) The following 96-well sample prep protocol was used for sample preparation.
# Q9NR09 = target: T4, Q9NR09 (Homo sapiens, UniProt Q9NR09); assay: as above; settings: 100 uM
# T4 construct: endogenous in cells
# Source text: as §2
# [4] = target: T5, cysteine residue illustrated in Table 1A or Table 2A (Homo sapiens, UniProt O60826); assay: Competitive cysteine profiling of cell lysate with desthiobiotin iodoacetamide probe (96-well sample prep); settings: UniProt O60826; 100 uM
# T5 construct: Cells were resuspended in cold PBS on ice and sonicated with a probe sonicator to achieve lysis; endogenous in cells
# Method in brief: as §1
# [5] = target: T6, cysteine residue illustrated in Table 1A or Table 2A (Homo sapiens, UniProt O94941); assay: as above; settings: UniProt O94941
# T6 construct: Cells were resuspended in cold PBS on ice and sonicated with a probe sonicator to achieve lysis; endogenous in cells
# T6 sequence (O94941 whole entry): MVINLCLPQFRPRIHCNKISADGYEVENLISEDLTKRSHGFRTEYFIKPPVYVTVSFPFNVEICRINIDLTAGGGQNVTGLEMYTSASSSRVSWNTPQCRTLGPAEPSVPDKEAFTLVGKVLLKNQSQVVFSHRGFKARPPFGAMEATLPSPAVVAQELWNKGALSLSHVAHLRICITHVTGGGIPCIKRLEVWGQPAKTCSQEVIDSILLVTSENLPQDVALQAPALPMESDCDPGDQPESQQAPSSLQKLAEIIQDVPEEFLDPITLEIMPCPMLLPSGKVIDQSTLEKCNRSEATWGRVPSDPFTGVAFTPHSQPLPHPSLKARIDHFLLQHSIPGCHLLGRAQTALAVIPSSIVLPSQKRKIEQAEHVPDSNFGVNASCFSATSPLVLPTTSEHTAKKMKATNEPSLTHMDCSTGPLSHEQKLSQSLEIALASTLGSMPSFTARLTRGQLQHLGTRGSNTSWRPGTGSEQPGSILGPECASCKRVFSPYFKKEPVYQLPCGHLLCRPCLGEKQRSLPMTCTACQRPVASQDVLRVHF
# Method in brief: as §1
# [6] = target: T7, cysteine residue illustrated in Table 1A or Table 2A (Homo sapiens, UniProt Q5T6F0); assay: as above; settings: UniProt Q5T6F0; 100 uM
# T7 construct: Cells were resuspended in cold PBS on ice and sonicated with a probe sonicator to achieve lysis; endogenous in cells
# T7 sequence (Q5T6F0 whole entry): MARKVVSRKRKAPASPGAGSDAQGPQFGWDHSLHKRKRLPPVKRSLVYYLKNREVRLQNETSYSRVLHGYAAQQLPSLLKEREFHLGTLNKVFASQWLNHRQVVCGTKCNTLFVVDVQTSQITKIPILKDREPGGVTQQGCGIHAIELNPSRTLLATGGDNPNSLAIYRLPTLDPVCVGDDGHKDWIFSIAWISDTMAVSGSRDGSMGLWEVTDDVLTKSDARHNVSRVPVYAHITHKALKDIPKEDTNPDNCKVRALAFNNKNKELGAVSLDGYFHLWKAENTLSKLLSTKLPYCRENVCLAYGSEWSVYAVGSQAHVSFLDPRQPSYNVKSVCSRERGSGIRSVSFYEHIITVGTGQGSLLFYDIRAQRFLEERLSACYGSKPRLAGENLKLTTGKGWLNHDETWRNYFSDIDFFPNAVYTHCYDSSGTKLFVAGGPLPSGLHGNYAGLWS
# Method in brief: as §1
# [7] = target: T8, cysteine residue illustrated in Table 1A or Table 2A (Homo sapiens, UniProt Q66K64); assay: as above; settings: UniProt Q66K64; 100 uM
# T8 construct: Cells were resuspended in cold PBS on ice and sonicated with a probe sonicator to achieve lysis; endogenous in cells
# T8 sequence (Q66K64 whole entry): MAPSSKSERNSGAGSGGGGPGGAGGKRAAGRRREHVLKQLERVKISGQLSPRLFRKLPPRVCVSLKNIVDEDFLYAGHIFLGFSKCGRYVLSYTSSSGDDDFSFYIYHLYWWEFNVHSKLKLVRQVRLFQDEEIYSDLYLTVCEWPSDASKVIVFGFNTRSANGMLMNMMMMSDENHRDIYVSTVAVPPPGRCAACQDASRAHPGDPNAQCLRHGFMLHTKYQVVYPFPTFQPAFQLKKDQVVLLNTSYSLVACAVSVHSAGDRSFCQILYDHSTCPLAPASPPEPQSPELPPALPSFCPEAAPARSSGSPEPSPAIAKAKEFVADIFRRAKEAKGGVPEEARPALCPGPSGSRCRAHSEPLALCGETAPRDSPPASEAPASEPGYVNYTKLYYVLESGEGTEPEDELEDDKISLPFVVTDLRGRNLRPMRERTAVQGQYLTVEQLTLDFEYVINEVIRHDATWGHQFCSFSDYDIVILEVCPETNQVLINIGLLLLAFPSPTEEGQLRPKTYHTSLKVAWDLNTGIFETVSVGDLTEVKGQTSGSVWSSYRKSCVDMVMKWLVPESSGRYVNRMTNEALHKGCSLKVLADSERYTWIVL
# Method in brief: as §1
# [8] = target: T9, cysteine residue illustrated in Table 1A or Table 2A (Homo sapiens, UniProt Q6P1J9); assay: as above; settings: UniProt Q6P1J9; 100 uM
# T9 construct: Cells were resuspended in cold PBS on ice and sonicated with a probe sonicator to achieve lysis; endogenous in cells
# Method in brief: as §1
# [9] = target: T10, cysteine residue illustrated in Table 1A or Table 2A (Homo sapiens, UniProt Q96GG9); assay: as above; settings: UniProt Q96GG9; 100 uM
# T10 construct: Cells were resuspended in cold PBS on ice and sonicated with a probe sonicator to achieve lysis; endogenous in cells
# T10 sequence (Q96GG9 whole entry): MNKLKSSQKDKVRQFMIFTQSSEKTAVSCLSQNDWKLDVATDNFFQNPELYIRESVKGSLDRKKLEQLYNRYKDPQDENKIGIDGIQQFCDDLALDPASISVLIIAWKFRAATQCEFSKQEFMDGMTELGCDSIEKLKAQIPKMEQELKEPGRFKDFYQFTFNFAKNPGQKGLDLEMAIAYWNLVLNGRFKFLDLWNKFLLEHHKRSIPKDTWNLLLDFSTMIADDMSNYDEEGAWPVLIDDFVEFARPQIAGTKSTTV
# Method in brief: as §1
# Q969K4 = target: T11, Q969K4 (Homo sapiens, UniProt Q969K4); assay: Competitive cysteine profiling, probe competition (Table 2B); settings: read-out: KB05_100 uM_percent_inhibition
# T11 construct: Cells were resuspended in cold PBS on ice and sonicated with a probe sonicator to achieve lysis; endogenous in cells
# Source text: as §2
# Q96Q27 = target: T12, Q96Q27 (Homo sapiens, UniProt Q96Q27); assay: as above; settings: read-out: KB05_100 uM_percent_inhibition
# T12 construct: endogenous in cells
# Source text: as §2
# Q9Y576 = target: T13, Q9Y576 (Homo sapiens, UniProt Q9Y576); assay: as above; settings: 100 uM
# T13 construct: endogenous in cells
# T13 sequence (Q9Y576 whole entry): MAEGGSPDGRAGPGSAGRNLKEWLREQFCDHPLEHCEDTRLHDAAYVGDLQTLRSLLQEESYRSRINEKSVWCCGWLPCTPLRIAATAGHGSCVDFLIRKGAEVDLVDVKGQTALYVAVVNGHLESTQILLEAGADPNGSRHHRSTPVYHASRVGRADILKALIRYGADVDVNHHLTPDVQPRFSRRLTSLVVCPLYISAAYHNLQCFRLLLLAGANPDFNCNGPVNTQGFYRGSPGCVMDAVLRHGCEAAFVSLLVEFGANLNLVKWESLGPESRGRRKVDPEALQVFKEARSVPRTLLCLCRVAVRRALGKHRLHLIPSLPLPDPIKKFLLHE
# Source text: as §2
structure (smiles),measurement,setting,value
COc1ccc2c(c1)CCCN2C(=O)CCl [KB02],KB02_100 uM_percent_inhibition,[1],24%
same,KB02_100 uM_percent_inhibition,[2],16%
same,KB02_100 uM_percent_inhibition,"[3]; c0 = UniProt of target protein, one grid row per cysteine site",24%
same,KB02_100 uM_percent_inhibition,"[3]; target protein = UniProt accession, one row per cysteine site",24%
same,KB02_100 uM_percent_inhibition,[3]; target protein = UniProt id in c0 of the row (one row per cysteine site),24%
same,KB02_100 uM_percent_inhibition,Q8N961; 100 uM,60%
same,inhibition at 100 µM,Q8N961; read-out: KB02_100 uM_percent_inhibition,52%
same,KB02_100 uM_percent_inhibition,Q9NR09,24%
C=CC(=O)N(c1ccccc1)c1ccc(Br)cc1 [KB05],KB05_100 uM_percent_inhibition,[4],22%
same,KB05_100 uM_percent_inhibition,[5]; KB05 100 uM,40%
same,KB05_100 uM_percent_inhibition,[6],31%
same,KB05_100 uM_percent_inhibition,[7],11%
same,KB05_100 uM_percent_inhibition,[8],33%
same,KB05_100 uM_percent_inhibition,[2],26%
same,KB05_100 uM_percent_inhibition,[9],10%
same,inhibition at 100 µM,Q969K4,3%
same,inhibition at 100 µM,Q96Q27,36%
O=C(CCl)Nc1cc(C(F)(F)F)cc(C(F)(F)F)c1 [KBO3],KB03_100 uM_percent_inhibition,[4],7%
same,KB03_100 uM_percent_inhibition,[1],31%
same,KB03_100 uM_percent_inhibition,[5]; KB03 100 uM,63%
same,KB03_100 uM_percent_inhibition,[6],11%
same,KB03_100 uM_percent_inhibition,[7],31%
same,KB03_100 uM_percent_inhibition,[8],24%
same,KB03_100 uM_percent_inhibition,[9],26%
same,KB03_100 uM_percent_inhibition,"[3]; target protein = UniProt accession, one row per cysteine site, UniProt Q9P0J7",90%
same,KB03_100 uM_percent_inhibition,"[3]; target protein = UniProt accession, one row per cysteine site, UniProt Q08380",69%
same,KB03_100 uM_percent_inhibition,Q9Y576,51%
